From patent US7915270B2, “Oxazole ketones as modulators of fatty acid amide hydrolase” (The Scripps Research Institute, priority 2006, dated 2011)

How the values were obtained:
Rat FAAH = molecular target: T1, Rat FAAH (Rattus norvegicus, UniProt P97612); test: Assay Method 2: FAAH assay, 3H-anandamide hydrolysis in cell homogenate (SK-N-MC cells transfected with rat FAAH); assay type: biochemical; conditions: 3H-AEA 80 nM, rt 1 h, pH 9
T1 construct: expressed in transfected cells
T1 sequence (P97612 1-579): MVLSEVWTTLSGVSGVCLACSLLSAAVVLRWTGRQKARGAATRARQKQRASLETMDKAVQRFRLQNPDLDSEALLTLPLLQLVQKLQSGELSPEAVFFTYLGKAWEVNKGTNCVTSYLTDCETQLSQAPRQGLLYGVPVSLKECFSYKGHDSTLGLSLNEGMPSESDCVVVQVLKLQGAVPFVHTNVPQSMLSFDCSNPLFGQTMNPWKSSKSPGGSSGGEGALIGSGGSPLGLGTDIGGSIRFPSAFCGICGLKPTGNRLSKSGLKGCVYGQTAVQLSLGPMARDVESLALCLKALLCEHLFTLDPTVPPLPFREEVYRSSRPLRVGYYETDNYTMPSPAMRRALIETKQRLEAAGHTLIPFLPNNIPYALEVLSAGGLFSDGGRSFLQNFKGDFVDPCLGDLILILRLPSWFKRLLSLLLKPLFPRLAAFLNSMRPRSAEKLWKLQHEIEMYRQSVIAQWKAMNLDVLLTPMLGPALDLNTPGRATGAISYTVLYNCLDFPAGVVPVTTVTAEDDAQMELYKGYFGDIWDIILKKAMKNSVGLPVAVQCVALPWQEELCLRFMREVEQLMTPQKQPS
Experimental: A. Transfection of Cells with Rat FAAH
(§1) A 10-cm tissue culture dish with a confluent monolayer of SK—N-MC cells was split 2 days (d) prior to transfection. Using sterile technique, the media was removed and the cells were detached from the dish by the addition of trypsin. One fifth of the cells were then placed onto a new 10-cm dish. Cells were grown in a 37° C. incubator with 5% CO2 in Minimal Essential Media Eagle with 10% Fetal Bovine Serum. After 2 d, cells were approximately 80% confluent. These cells were removed from the dish with trypsin and pelleted in a clinical centrifuge. The pellet was re-suspended in 400 μL complete media and transferred to an electroporation cuvette with a 0.4 cm gap between the electrodes. Supercoiled rat FAAH cDNA (1 μg) was added to the cells and mixed. The voltage for the electroporation was set at 0.25 kV, and the capacitance was set at 960 μF. After electroporation, the cells were diluted into complete media (10 mL) and plated onto four 10-cm dishes. Because of the variability in the efficiency of electroporation, four different concentrations of cells were plated. The ratios used were 1:20, 1:10, and 1:5, with the remainder of the cells being added to the fourth dish. The cells were allowed to recover for 24 h before adding the selection media (complete media with 600 μg/mL G418). After 10 d, dishes were analyzed for surviving colonies of cells. Dishes with well-isolated colonies were used. Cells from individual colonies were isolated and tested.
The assay mixture consisted of 50 μL of the cell homogenate, 10 μL of the test compound, and 40 μL of anandamide [1-^3H-ethanolamine] (^3H-AEA, Perkin-Elmer, 10.3 Ci/mmol), which was added last, for a final tracer concentration of 80 nM. The reaction mixture was incubated at rt for 1 h. During the incubation, 96-well Multiscreen filter plates (catalog number MAFCNOB50; Millipore, Bedford, Mass., USA) were loaded with 25 μL of activated charcoal (Multiscreen column loader, catalog number MACL09625, Millipore) and washed once with 100 μL of MeOH. […] After the 1 h incubation, 60 μL of the reaction mixture were transferred to the charcoal plates, which were then assembled on top of the DYNEX plates using Centrifuge Alignment Frames (catalog number MACF09604, Millipore). The unbound labeled ethanolamine was centrifuged through to the bottom plate (5 min at 2000 rpm), which was preloaded with the scintillant, as described above. The plates were sealed and left at rt for 1 h before counting on a Hewlett Packard TopCount.

FAAH [1] = molecular target: T2, FAAH (Homo sapiens, UniProt O00519); test: Assay Method 1B: FAAH assay, 3H-anandamide hydrolysis in cell homogenate (T84 or SK-N-MC cells transfected with human FAAH); assay type: biochemical; design: expressed in transfected cells; conditions: 3H-AEA 80 nM, rt 1 h, pH 9
T2 sequence (O00519 1-579): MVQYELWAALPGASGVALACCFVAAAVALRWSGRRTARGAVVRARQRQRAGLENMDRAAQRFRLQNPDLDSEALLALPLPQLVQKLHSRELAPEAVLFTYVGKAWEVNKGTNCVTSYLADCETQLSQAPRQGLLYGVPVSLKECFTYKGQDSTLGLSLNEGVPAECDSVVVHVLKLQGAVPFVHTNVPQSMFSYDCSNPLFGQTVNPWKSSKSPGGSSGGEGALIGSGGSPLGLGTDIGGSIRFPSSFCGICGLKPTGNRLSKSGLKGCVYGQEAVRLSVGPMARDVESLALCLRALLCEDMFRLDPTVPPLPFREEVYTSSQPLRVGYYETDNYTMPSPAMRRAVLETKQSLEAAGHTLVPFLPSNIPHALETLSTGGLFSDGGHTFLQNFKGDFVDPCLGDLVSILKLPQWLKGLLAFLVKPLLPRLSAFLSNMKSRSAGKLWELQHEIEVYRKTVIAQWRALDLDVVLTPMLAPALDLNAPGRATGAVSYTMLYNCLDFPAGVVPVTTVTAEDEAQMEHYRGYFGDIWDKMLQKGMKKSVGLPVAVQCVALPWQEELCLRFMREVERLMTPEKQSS
Experimental: as §1, with “Transfection of Cells with Human FAAH A 10-cm” for “A 10-cm”, “electrodes. Supercoiled human FAAH cDNA” for “electrodes. Supercoiled rat FAAH cDNA”, “and tested. […] The reaction mixture was incubated at rt for 1 h. During the incubation, 96-well Multiscreen filter plates (catalog number MAFCNOB50; Millipore, Bedford, Mass., USA) were loaded with 25 μL of activated charcoal (Multiscreen column loader, catalog number MACL09625, Millipore) and washed once with 100 μL of MeOH. Also during the incubation, 96-well DYNEX MicroLite plates (catalog number NL510410) were loaded with 100 μL of MicroScint40 (catalog number 6013641, Packard Bioscience, Meriden, Conn., USA). After the 1 h incubation, 60 μL of the reaction mixture were transferred to the charcoal plates, which were then assembled on top of the DYNEX plates using Centrifuge Alignment Frames (catalog number MACF09604, Millipore). The unbound labeled ethanolamine was centrifuged through to the bottom plate (5 min at 2000 rpm), which was preloaded with the scintillant, as described above. The plates were sealed and left at rt for 1 h before counting on a Hewlett Packard TopCount.” for “and tested.”

FAAH [2] = molecular target: T3, FAAH (Rattus norvegicus, UniProt P97612); test: Assay Method 1A: FAAH enzyme assay, 14C-oleamide hydrolysis, solubilized liver plasma membrane extract;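 further: ki obtained by Dixon analysis, taking the x-intercept of inhibitor concentration versus reciprocal rate plots at fixed substrate level and correcting for substrate concentration relative to Km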
T3 sequence (P97612 1-579): T1 sequence (P97612 1-579)
Experimental: Linear least squares fits were used for all reaction progress curves and R^2 values were consistently >0.97. […] Ki values were determined by the Dixon Method (x-intercepts of weighted linear fits of [I] versus 1/rate plots at constant substrate concentration, which were converted to Ki values using the formula Ki=−xint/[1+[S]/Km]).

Row | IC50 (Rat FAAH) | IC50 (FAAH [1]) | Ki (FAAH [2]) | SMILES
1 | 47 nM | 8000 nM |  | O=C(CCCCCCc1ccccc1)c1ncc(-c2c[nH]c(=O)[nH]c2=O)o1 [Example 54, 5-(2-(7-Phenylheptanoyl)oxazol-5-yl)pyrimidine-2,4(1H,3H)-dione]
2 |  | 2000 nM | 1500 nM | NS(=O)(=O)c1ccccc1-c1cnc(C(=O)CCCCCCc2ccccc2)o1 [Example 19, 2-(2-(7-Phenylheptanoyl)oxazol-5-yl)benzenesulfonamide]
3 | 1000 nM | 100 nM |  | O=C(CCCCCCc1ccccc1)c1ncc(-c2ccc(F)cc2)o1 [Example 12, 1-(5-(4-Fluorophenyl)oxazol-2-yl)-7-phenylheptan-1-one]
4 | 500 nM | 110 nM |  | O=C(CCCCCCc1ccccc1)c1ncc(-c2ccc([N+](=O)[O-])cc2)o1 [Example 3, 1-(5-(4-Nitrophenyl)oxazol-2-yl)-7-phenylheptan-1-one]
5 | 220 nM | 290 nM |  | N#Cc1ccc(-c2cnc(C(=O)CCCCCCc3ccccc3)o2)cc1 [Example 18, 4-(2-(7-Phenylheptanoyl)oxazol-5-yl)benzonitrile]
6 |  |  | 4 nM | O=C(CCCCCCc1ccccc1)c1ncc(-c2cc(C(F)(F)F)ccn2)o1 [Example 47, 7-Phenyl-1-(5-(4-(trifluoromethyl)pyridin-2-yl)oxazol-2-yl)heptan-1-one]
7 | 60 nM | 10 nM |  | NC(=O)c1ccc(-c2cnc(C(=O)CCCCCCc3ccccc3)o2)cc1 [Example 9, 4-(2-(7-Phenylheptanoyl)oxazol-5-yl)benzamide]
8 | 1800 nM | 160 nM |  | NC(=O)c1ccccc1-c1cnc(C(=O)CCCCCCc2ccccc2)o1 [Example 7, 2-(2-(7-Phenylheptanoyl)oxazol-5-yl)benzamide]
9 | 520 nM | 9 nM |  | N#Cc1cccc(-c2cnc(C(=O)CCCCCCc3ccccc3)o2)c1 [Example 17, 3-(2-(7-Phenylheptanoyl)oxazol-5-yl)benzonitrile]
10 | 1800 nM | 450 nM |  | O=C(CCCCCCc1ccccc1)c1ncc(-c2ccc(O)cc2)o1 [Example 32, 1-(5-(4-Hydroxyphenyl)oxazol-2-yl)-7-phenylheptan-1-one]
11 | 2000 nM | 110 nM |  | N#Cc1ccccc1-c1cnc(C(=O)CCCCCCc2ccccc2)o1 [Example 16, 2-(2-(7-Phenylheptanoyl)oxazol-5-yl)benzonitrile]
12 |  |  | 3 nM | Cc1cccc(-c2cnc(C(=O)CCCCCCc3ccccc3)o2)n1 [Example 41, 1-(5-(6-Methylpyridin-2-yl)oxazol-2-yl)-7-phenylheptan-1-one]
13 |  |  | 26 nM | COc1ncc(-c2cnc(C(=O)CCCCCCc3ccccc3)o2)c(OC)n1 [Example 53, 1-(5-(2,4-Dimethoxypyrimidin-5-yl)oxazol-2-yl)-7-phenylheptan-1-one]
14 |  |  | 2 nM | COc1ccnc(-c2cnc(C(=O)CCCCCCc3ccccc3)o2)c1 [Example 45, 1-(5-(4-Methoxypyridin-2-yl)oxazol-2-yl)-7-phenylheptan-1-one]
15 |  |  | 5 nM | COc1cc(-c2cnc(C(=O)CCCCCCc3ccccc3)o2)nc(OC)n1 [Example 51, 1-(5-(2,6-Dimethoxypyrimidin-4-yl)oxazol-2-yl)-7-phenylheptan-1-one]
16 |  |  | > 50 nM | O=C(CCCCCCc1ccccc1)c1ncc(-c2ncccc2C(=O)O)o1 [Example 40, 2-(2-(7-Phenylheptanoyl)oxazol-5-yl)nicotinic acid]
17 |  |  | 1 nM | COC(=O)c1ccnc(-c2cnc(C(=O)CCCCCCc3ccccc3)o2)c1 [Example 35, Methyl 2-(2-(7-phenylheptanoyl)oxazol-5-yl)isonicotinate]
18 |  |  | 1 nM | Cc1ccnc(-c2cnc(C(=O)CCCCCCc3ccccc3)o2)c1 [Example 43, 1-(5-(4-Methylpyridin-2-yl)oxazol-2-yl)-7-phenylheptan-1-one]
19 |  |  | 15 nM | Cc1cccnc1-c1cnc(C(=O)CCCCCCc2ccccc2)o1 [Example 44, 1-(5-(3-Methylpyridin-2-yl)oxazol-2-yl)-7-phenylheptan-1-one]
20 |  | 1900 nM | 400 nM | COc1ccccc1-c1cnc(C(=O)CCCCCCc2ccccc2)o1 [Example 13, 1-(5-(2-Methoxyphenyl)oxazol-2-yl)-7-phenylheptan-1-one]
21 |  |  | 3 nM | O=C(CCCCCCc1ccccc1)c1ncc(-c2cc([N+](=O)[O-])ccn2)o1 [Example 48, 1-(5-(4-Nitropyridin-2-yl)oxazol-2-yl)-7-phenylheptan-1-one]
22 |  |  | 3 nM | Cc1ccc(-c2cnc(C(=O)CCCCCCc3ccccc3)o2)nc1 [Example 42, 1-(5-(5-Methylpyridin-2-yl)oxazol-2-yl)-7-phenylheptan-1-one]
23 |  |  | 25 nM | Nc1ccnc(-c2cnc(C(=O)CCCCCCc3ccccc3)o2)c1 [Example 49, 1-(5-(4-Aminopyridin-2-yl)oxazol-2-yl)-7-phenylheptan-1-one]
24 |  |  | 2 nM | N#Cc1ccnc(-c2cnc(C(=O)CCCCCCc3ccccc3)o2)c1 [Example 46, 2-(2-(7-Phenylheptanoyl)oxazol-5-yl)isonicotinonitrile]
